Results on 26 molecules are retold here after US20090012103A1, “SUBSTITUTED HETEROCYCLIC COMPOUNDS” (priority 2007, published 2009).

The target in the first experiment is wild-type human cardiac sodium channel, hNav1.5 (Homo sapiens, UniProt Q14524). Description: Late INa screening assay (late sodium current, PatchXpress whole cell patch clamp). Type of experiment: cell-based. Particulars: compound at 10 μM; read-out: Late INa % blk. On the technique in general: In patch-clamp work, channel activity is measured electrically.
wild-type human cardiac sodium channel, hNav1.5, sequence (Q14524 whole entry): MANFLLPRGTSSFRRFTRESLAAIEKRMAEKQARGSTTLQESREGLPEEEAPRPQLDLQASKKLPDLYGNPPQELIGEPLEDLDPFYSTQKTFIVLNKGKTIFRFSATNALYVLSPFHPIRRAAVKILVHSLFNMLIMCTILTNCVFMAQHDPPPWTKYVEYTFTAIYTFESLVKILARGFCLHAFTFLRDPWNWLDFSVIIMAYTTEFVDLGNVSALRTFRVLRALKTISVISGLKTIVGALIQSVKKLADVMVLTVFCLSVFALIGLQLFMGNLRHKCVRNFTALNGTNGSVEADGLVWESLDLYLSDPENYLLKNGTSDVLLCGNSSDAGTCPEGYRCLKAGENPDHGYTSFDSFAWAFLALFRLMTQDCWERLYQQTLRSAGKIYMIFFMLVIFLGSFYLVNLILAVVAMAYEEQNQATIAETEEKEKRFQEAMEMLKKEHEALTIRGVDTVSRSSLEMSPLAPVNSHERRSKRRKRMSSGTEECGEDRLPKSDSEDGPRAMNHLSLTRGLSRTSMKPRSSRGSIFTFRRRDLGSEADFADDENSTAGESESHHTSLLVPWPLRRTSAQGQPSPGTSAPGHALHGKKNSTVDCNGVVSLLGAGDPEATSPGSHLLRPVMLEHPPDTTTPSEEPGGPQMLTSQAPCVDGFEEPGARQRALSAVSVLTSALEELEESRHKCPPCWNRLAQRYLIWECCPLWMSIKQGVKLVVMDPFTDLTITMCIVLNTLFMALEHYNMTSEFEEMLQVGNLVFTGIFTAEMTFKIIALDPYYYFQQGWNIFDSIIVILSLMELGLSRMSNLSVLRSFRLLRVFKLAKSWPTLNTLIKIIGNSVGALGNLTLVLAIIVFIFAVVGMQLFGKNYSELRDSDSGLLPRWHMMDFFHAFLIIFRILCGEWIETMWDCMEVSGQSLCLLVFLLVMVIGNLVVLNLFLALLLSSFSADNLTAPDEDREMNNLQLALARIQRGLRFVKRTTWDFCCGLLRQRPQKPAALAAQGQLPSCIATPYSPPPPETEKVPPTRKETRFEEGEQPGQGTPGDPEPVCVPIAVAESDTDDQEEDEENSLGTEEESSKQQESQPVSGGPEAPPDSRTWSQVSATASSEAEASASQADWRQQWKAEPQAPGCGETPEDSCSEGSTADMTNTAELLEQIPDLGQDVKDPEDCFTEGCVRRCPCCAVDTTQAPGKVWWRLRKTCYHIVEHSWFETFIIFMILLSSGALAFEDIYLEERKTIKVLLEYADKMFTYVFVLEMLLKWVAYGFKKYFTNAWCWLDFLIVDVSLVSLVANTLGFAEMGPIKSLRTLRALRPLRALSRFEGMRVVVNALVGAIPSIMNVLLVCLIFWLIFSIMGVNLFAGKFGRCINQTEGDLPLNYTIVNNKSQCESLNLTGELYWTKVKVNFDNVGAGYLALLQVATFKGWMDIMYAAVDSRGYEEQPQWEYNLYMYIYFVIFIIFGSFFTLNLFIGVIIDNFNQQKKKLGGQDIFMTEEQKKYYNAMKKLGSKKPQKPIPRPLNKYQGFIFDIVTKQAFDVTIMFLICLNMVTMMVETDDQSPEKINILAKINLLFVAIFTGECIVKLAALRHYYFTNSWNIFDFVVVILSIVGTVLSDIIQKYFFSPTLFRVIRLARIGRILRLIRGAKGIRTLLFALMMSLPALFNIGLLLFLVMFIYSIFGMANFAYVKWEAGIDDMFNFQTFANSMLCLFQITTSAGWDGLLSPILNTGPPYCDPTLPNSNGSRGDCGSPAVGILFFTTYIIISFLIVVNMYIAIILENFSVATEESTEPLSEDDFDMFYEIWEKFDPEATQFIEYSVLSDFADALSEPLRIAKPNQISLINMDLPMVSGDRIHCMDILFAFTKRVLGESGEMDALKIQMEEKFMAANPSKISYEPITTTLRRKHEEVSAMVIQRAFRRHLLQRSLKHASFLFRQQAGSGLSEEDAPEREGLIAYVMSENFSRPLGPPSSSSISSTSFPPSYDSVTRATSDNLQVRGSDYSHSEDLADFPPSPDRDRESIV
With `CC1=C(C(=O)OCc2ccc(C#N)cc2)C(c2cccc3ccccc23)n2nnnc2N1` (centres unmarked) [PT-046, 4-cyanobenzyl 5-methyl-7-(naphthalen-1-yl)-4,7-dihydrotetrazolo[1,5-a]pyrimidine-6-carboxylate], the inhibition at 10 µM worked out at 67%. As to `CC1=C(C(=O)OCc2ccccc2-c2ccccc2)C(c2cccc3ccccc23)n2nnnc2N1` (centres unmarked) [PT-005, biphenyl-2-ylmethyl 5-methyl-7-(naphthalen-1-yl)-4,7-dihydrotetrazolo[1,5-a]pyrimidine-6-carboxylate], the inhibition at 10 µM was 25.4%. Still for that read-out and setting: for `COC(=O)C1=C(C)Nc2[nH]nc(C)c2C1c1nc(C)cs1` (centres unmarked) [PT-509, methyl 3,6-dimethyl-4-(4-methylthiazol-2-yl)-4,7-dihydro-1H-pyrazolo[3,4-b]pyridine-5-carboxylate] the value was 6.4%. For `O=C1OCC(O)=C1C(C1=C(O)COC1=O)c1cccc2ccccc12` [PT-222, 3,3′-(naphthalen-1-ylmethylene)bis(4-hydroxyfuran-2(5H)-one)], the inhibition at 10 µM came out at 15.8%. Turning to `CCOC(=O)c1ccc(COc2ccccc2C2C(C(=O)OCc3ccccc3)=C(C)Nc3nnnn32)cc1` (centres unmarked) [PT-377, benzyl 7-(2-(4-(ethoxycarbonyl)benzyloxy)phenyl)-5-methyl-4,7-dihydrotetrazolo[1,5-a]pyrimidine-6-carboxylate], the inhibition at 10 µM was determined as 30.3%. Regarding `CC1=C(C(=O)OCc2ccccc2)C(c2occc2Br)n2nnnc2N1` (centres unmarked) [PT-400, benzyl 7-(3-bromofuran-2-yl)-5-methyl-4,7-dihydrotetrazolo[1,5-a]pyrimidine-6-carboxylate], the inhibition at 10 µM is 53.2%. On to `CCOC(=O)C1=C(C)NC(C)=C(C(=O)OCC)C1c1ccc(-c2ccccc2C(F)(F)F)o1` [PT-119, diethyl 2,6-dimethyl-4-(5-(2-(trifluoromethyl)phenyl)furan-2-yl)-1,4-dihydropyridine-3,5-dicarboxylate], for which the inhibition at 10 µM was found to be 3.8%. For `CCOC(=O)C1=C(C)Nc2nnnn2C1c1ccccc1Oc1ccc(C#N)cc1` (centres unmarked) [PT-485, ethyl 7-(2-(4-cyanophenoxy)phenyl)-5-methyl-4,7-dihydrotetrazolo[1,5-a]pyrimidine-6-carboxylate], the inhibition at 10 µM is 5.2%. On to `CCOC(=O)C1=C(C)NC(C)=C(C(=O)OCC)C1c1ccc(OC)cc1F` [PT-432, diethyl 4-(2-fluoro-4-methoxyphenyl)-2,6-dimethyl-1,4-dihydropyridine-3,5-dicarboxylate], for which the inhibition at 10 µM amounted to 56.9%. With `CC1=C(C(=O)OCc2ccccc2)C(c2ccc(C#N)cc2)n2nnnc2N1` (centres unmarked) [PT-418, benzyl 7-(4-cyanophenyl)-5-methyl-4,7-dihydrotetrazolo[1,5-a]pyrimidine-6-carboxylate], the inhibition at 10 µM is 42.7%. Consider `CC1=C(C(=O)OCc2ccccc2)C(c2ccccc2-c2ccc(S(C)(=O)=O)cc2)n2nnnc2N1` (centres unmarked) [PT-354, benzyl 5-methyl-7-(4′-(methylsulfonyl)biphenyl-2-yl)-4,7-dihydrotetrazolo[1,5-a]pyrimidine-6-carboxylate], for which the inhibition at 10 µM is 64.7%.

For `CCOC(=O)c1ccc(COc2ccccc2C2C(C(=O)OC)=C(C)Nc3nnnn32)cc1` (centres unmarked) [PT-516, methyl 7-(2-(4-(ethoxycarbonyl)benzyloxy)phenyl)-5-methyl-4,7-dihydrotetrazolo[1,5-a]pyrimidine-6-carboxylate], the inhibition at 10 µM came to 20.2%. Still for that read-out and setting: for `CC1=C(C(=O)OCc2ccccc2)C(c2cccc3c2OCCO3)n2nnnc2N1` (centres unmarked) [PT-036, benzyl 7-(2,3-dihydrobenzo[b][1,4]dioxin-5-yl)-5-methyl-4,7-dihydrotetrazolo[1,5-a]pyrimidine-6-carboxylate] the value was 41%; for `CC1=C(C(=O)N2CCc3ccccc3C2)C(c2cccc3ccccc23)C2=C(CCCC2=O)N1` (centres unmarked) [PT-171, 2-methyl-4-(naphthalen-1-yl)-3-(1,2,3,4-tetrahydroisoquinoline-2-carbonyl)-4,6,7,8-tetrahydroquinolin-5(1H)-one], 20.2%; for `CCOC(=O)C1=C(C)Nc2nnnn2C1c1sccc1-c1ccc(C(=O)O)cc1` (centres unmarked) [PT-292, 4-(2-(6-(ethoxycarbonyl)-5-methyl-4,7-dihydrotetrazolo[1,5-a]pyrimidin-7-yl)thiophen-3-yl)benzoic acid], 18.7%. The same measure, in the same setting: the figure for `O=C1OCc2nc3c(cnn3-c3ccccc3)c(-c3cccc4ccccc34)c21` [PT-302, 4-(naphthalen-1-yl)-1-phenyl-1H-furo[3,4-e]pyrazolo[3,4-b]pyridin-5(7H)-one] is 50.4%; for `COc1ccc(C2C(C(=O)OCc3ccccc3)=C(C)Nc3nnnn32)c([N+](=O)[O-])c1` (centres unmarked) [PT-419, benzyl 7-(4-methoxy-2-nitrophenyl)-5-methyl-4,7-dihydrotetrazolo[1,5-a]pyrimidine-6-carboxylate] it is 44.2%. On to `COc1ccc(C2C(C(=O)OCc3ccccc3)=C(C)Nc3nnnn32)c(OC)c1` (centres unmarked) [PT-385, benzyl 7-(2,4-dimethoxyphenyl)-5-methyl-4,7-dihydrotetrazolo[1,5-a]pyrimidine-6-carboxylate], for which the inhibition at 10 µM turned out to be 56.5%. As to `CC1=C(C(=O)OCc2ccccc2)C(c2cccc(-c3ccccc3)c2)n2nnnc2N1` (centres unmarked) [PT-026, benzyl 7-(biphenyl-3-yl)-5-methyl-4,7-dihydrotetrazolo[1,5-a]pyrimidine-6-carboxylate], the inhibition at 10 µM came to 10.3%. For `CC1=C(C(=O)OCc2ccc(Oc3ccccc3)cc2)C(c2cccc3ccccc23)n2nnnc2N1` (centres unmarked) [PT-003, 4-phenoxybenzyl 5-methyl-7-(naphthalen-1-yl)-4,7-dihydrotetrazolo[1,5-a]pyrimidine-6-carboxylate], the inhibition at 10 µM came out at 14.5%. Regarding `CCOC(=O)C1=C(CC)Nc2nnnn2C1c1ccc2ccccc2c1` (centres unmarked) [PT-011, ethyl 5-ethyl-7-(naphthalen-2-yl)-4,7-dihydrotetrazolo[1,5-a]pyrimidine-6-carboxylate], the inhibition at 10 µM came to 37.7%. Consider `CCOC(=O)C1=C(C)NC2=C(C(=O)CCC2)C1c1ccc(OC)c2ccc(OC)cc12` (centres unmarked) [PT-138, ethyl 4-(4,7-dimethoxynaphthalen-1-yl)-2-methyl-5-oxo-1,4,5,6,7,8-hexahydroquinoline-3-carboxylate], for which the inhibition at 10 µM came out at 34.1%. For `CC1=C(C(=O)N2CCC(c3ccccc3)CC2)C(c2cccc3ccccc23)n2nnnc2N1` (centres unmarked) [PT-066, (5-methyl-7-(naphthalen-1-yl)-4,7-dihydrotetrazolo[1,5-a]pyrimidin-6-yl)(4-phenylpiperidin-1-yl)methanone], the inhibition at 10 µM was 22.2%. On to `CC1=C(C(=O)OCc2ccccc2)C(c2ccccc2-c2ccccc2C(N)=O)n2nnnc2N1` (centres unmarked) [PT-388, benzyl 7-(2′-carbamoylbiphenyl-2-yl)-5-methyl-4,7-dihydrotetrazolo[1,5-a]pyrimidine-6-carboxylate], for which the inhibition at 10 µM worked out at 2.7%.

Staying with this experiment, now noted: read-out: Late INa % blk.
As to `CCOC(=O)C1=C(C)Nc2c(C#N)cnn2C1c1cccc2ccccc12` (centres unmarked) [PT-091, ethyl 3-cyano-5-methyl-7-(naphthalen-1-yl)-4,7-dihydropyrazolo[1,5-a]pyrimidine-6-carboxylate], the inhibition at 10 µM came to 48.4%. Consider `CCOC(=O)C1=C(C(C)C)Nc2nnnn2C1c1cccc2ccccc12` (centres unmarked) [PT-013, ethyl 5-isopropyl-7-(naphthalen-1-yl)-4,7-dihydrotetrazolo[1,5-a]pyrimidine-6-carboxylate], for which the inhibition at 10 µM is 45.4%.
